The values below come from ChEMBL document CHEMBL1201862, “PubChem BioAssay data set” (2004).

Common to all, as to experiment: NCI tumour cell line growth inhibition, 48 h
The subject of experiment [1] is Hs-578T.
Experiment [2] concerns CCRF-CEM.
The test system of experiment [3] is OVCAR-5.
In experiment [4] the test system is ACHN.
For experiment [5], the system named is TK-10.
Experiment [6] has as its system SF-539.
Experiment [7] concerns MOLT-4.
Experiment [8] concerns MDA-N.
For experiment [9], the system named is BT-549.
Experiment [10] relates to M14.
Experiment [11] relates to OVCAR-3.
The test system of experiment [12] is OVCAR-8.
Experiment [13] relates to UACC-62.
For experiment [14], the system named is K562.
The subject of experiment [15] is SF-268.
For experiment [16], the system named is UO-31.
For experiment [17], the system named is SK-OV-3.
Experiment [18] has as its system CAKI-1.
Experiment [19] relates to SK-MEL-28.
Experiment [20] relates to DU-145.

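96-well plates; 48 h exposure; 5 concentrations. Endpoints by linear interpolation between flanking doses. Not reached: highest tested concentration assigned. GI50 = concentration required for 50% inhibition of growth.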 Active and inactive are the calls of the source. No stated cut-off is given here; in the data, active = GI50 up to about 1.1 µM and inactive = higher.

With `O=c1ssc2c1Nc1c(ssc1=O)S2`, the GI50 in experiment [1] was 33.7 µM (inactive); in experiment [2], 2.05 µM (inactive); in [3], 17 µM (inactive); in [4], 16.6 µM (inactive); in [5], 16 µM (inactive); in [6], 7.21 µM (inactive). The GI50 in [7] is 9.51 µM (inactive); in experiment [8], 16.1 µM (inactive); in experiment [9], 25.3 µM (inactive); in experiment [10] it was 11.7 µM (inactive); in experiment [11], 17.4 µM (inactive); in experiment [12], 14.8 µM (inactive). Further, the GI50 in experiment [13] was 14 µM (inactive); in [14], 8 µM (inactive); in experiment [15] it was 16.2 µM (inactive); in experiment [16], 11.4 µM (inactive); in experiment [17] it was 19.5 µM (inactive); in [18], 17.9 µM (inactive). The GI50 in experiment [19] is 18.5 µM (inactive); in experiment [20], 13.4 µM (inactive).
On to `C=CCN1C(=O)/C(=C/c2ccc(OC)cc2)N=C1SC/C=C/C`, for which the GI50 was 50.1 µM (inactive) in experiment [1]; 26.4 µM (inactive) in [2]; > 100 µM (inactive) in experiment [3]; 56.4 µM (inactive) in experiment [4]; > 100 µM (inactive) in experiment [5]; > 100 µM (inactive) in experiment [6]. Also, the GI50 was 20.3 µM (inactive) in experiment [7]; 26.7 µM (inactive) in experiment [8]; 39.7 µM (inactive) in experiment [9]; 54.7 µM (inactive) in experiment [10]; 74.1 µM (inactive) in experiment [11]; 31.8 µM (inactive) in experiment [12]. Besides, the GI50 in [13] is 42.8 µM (inactive); in experiment [14] it was 42.5 µM (inactive); in [15], 53.8 µM (inactive); in experiment [16], 32.1 µM (inactive); in experiment [17], > 100 µM (inactive); in experiment [18], 84.5 µM (inactive). For the same compound, the GI50 was 87.7 µM (inactive) in experiment [19] and 80 µM (inactive) in experiment [20].
Regarding `S=C(N/N=C(/c1ccccc1)c1ccccn1)Nc1ccccc1Cl`, the GI50 was 2.49 µM (inactive) in experiment [1]; < 0.01 µM (active) in [2]; 0.0243 µM (active) in experiment [3]; 0.0153 µM (active) in experiment [4]; 0.336 µM (active) in [5]; 1.11 µM (active) in experiment [6]. In addition, the GI50 was < 0.01 µM (active) in experiment [7]; 0.43 µM (active) in experiment [8]; 3.3 µM (inactive) in experiment [9]; < 0.0224 µM (active) in experiment [10]; < 0.0103 µM (active) in experiment [11]; 0.0299 µM (active) in experiment [12]. Moreover, the GI50 in experiment [13] was 0.101 µM (active); in [14], < 0.215 µM (active); in experiment [15], 0.179 µM (active); in [16] it was 0.163 µM (active); in experiment [17] it was 0.0266 µM (active); in experiment [18], 0.209 µM (active). The GI50 was 1.92 µM (inactive) in [19] and 2.31 µM (inactive) in experiment [20].
As for `NNC(=O)Cc1cccnc1`, the GI50 in [1], in [2], in experiment [3], in experiment [4], in experiment [5] and in [6] was > 100 µM (inactive) each time. The GI50 in [7], in experiment [8], in experiment [9], in experiment [10], in [11] and in experiment [12] was > 100 µM (inactive) throughout. The GI50 in experiment [13], in experiment [14], in experiment [15], in experiment [16], in experiment [17] and in [18] was > 100 µM (inactive) in each case. Further, the GI50 in experiment [19] and in [20] was > 100 µM (inactive) each time.
